This is an account of results in ChEMBL document CHEMBL1122611, “Synthesis and in vitro biological evaluation of N-[(5-amino-1-beta-D-ribofuranosyl-1H-imidazol-4-yl)carbonyl]-3- (hydroxynitrosamino)-L-alanine (L-alanosine AICO ribonucleoside)” (1984).

Test [1] can be described thus: Evaluation of inhibitory activity of adenylosuccinate synthetase.
Test [2] is described as follows: Evaluation of inhibitory activity against adenylosuccinate synthetase.
The subject of test [3] is HL-60. As to the kind of experiment: In vitro evaluation of inhibitory activity of HL60 human promyelocytic tumor cell. Format: functional. The conditions noted are these: read-out: ED50 (the source's name).

Molecules are shown by their SMILES.

With `Nc1c(C(=O)NC(CN(O)N=O)C(=O)O)ncn1[C@@H]1O[C@H](CO)[C@@H](O)[C@H]1O` (stereo not given in full), the ED50 is 0.3 µM in test [1] and more than 1000 µM in test [2]. The EC50 in test [3] is more than 100 µM.

`N[C@@H](CN(O)N=O)C(=O)O` [LALANOSINE] showed an ED50 in test [2] of 7000 µM. Besides, the EC50 in test [3] amounted to 2 µM.
